Read-outs that look alike come from different tables or passages of the source.

The subject of one data set is NCI-H1975. Put plainly: Cytotoxicity in vitro against NCI-H1975. Format: cell-based. An excerpt:
(§1) The cytotoxic activity of 7-Ethyl camptothecin is not negatively affected when tumor cells NCI-H1975 was transfected with drug transporters p-Glycoprotein (P-gp) and breast cancer resistant protein (BCRP) which is in strong contrast to SN38.

The nature of data set [1]: Pharmacokinetics: tumor and plasma levels in 786-O tumor bearing mice. As to conditions: for Tumor/Plasma enrichment factor (ratio/ratio): relative to direct administration of 7-ethyl camptothecin. Format: in vivo, NMRI nu/nu mice. How it is done: (§2) Tumor and plasma samples were collected at different time points and the levels of intact conjugate and of the toxophore 7-ethyl-camptothecin cleaved from the conjugate were determined.
For comparison, 1 mg/kg of 7-ethyl camptothecin was dissolved in a mixture of 5% aqueous dextrose/solutol/DMSO 85/10/5 and administered iv to female. 786-O tumor bearing NMRI nu/nu mice. Again tumor and plasma samples were collected at different time points and the levels of 7-ethyl-camptothecin were determined.
as §2

Data set [2] in a line: Caco-2 flux assay for cellular permeability. In kind it is in vitro ADME. Particulars: human. As for the experimental part: (§3) The cell permeability of a substance can be investigated by means of in vitro testing in a flux assay using Caco-2 cells [M. D. Troutman and D. R. Thakker, Pharm. Res. 20 (8), 1210-1224 (2003)]. For this purpose. the cells were cultured for 15-16 days on 24-well filter plates. […] The samples were separated by HPLC (Agilent 1200. Böblingen. Germany) using reverse phase columns. […] 1716-1725 (2003)]. A substance was classified as actively transported when the ratio of Papp (B-A) to Papp (A-B) (efflux ratio) was >2 or <0.5.

In another data set the target is P-gp (ABCB1) (Homo sapiens, UniProt P08183). Put plainly: in vitro. How it is done: Many tumor cells express transporter proteins for drugs, and this frequently accompanies the development of resistance towards cytostatics.
Chain of P-gp (ABCB1) (P08183 whole entry): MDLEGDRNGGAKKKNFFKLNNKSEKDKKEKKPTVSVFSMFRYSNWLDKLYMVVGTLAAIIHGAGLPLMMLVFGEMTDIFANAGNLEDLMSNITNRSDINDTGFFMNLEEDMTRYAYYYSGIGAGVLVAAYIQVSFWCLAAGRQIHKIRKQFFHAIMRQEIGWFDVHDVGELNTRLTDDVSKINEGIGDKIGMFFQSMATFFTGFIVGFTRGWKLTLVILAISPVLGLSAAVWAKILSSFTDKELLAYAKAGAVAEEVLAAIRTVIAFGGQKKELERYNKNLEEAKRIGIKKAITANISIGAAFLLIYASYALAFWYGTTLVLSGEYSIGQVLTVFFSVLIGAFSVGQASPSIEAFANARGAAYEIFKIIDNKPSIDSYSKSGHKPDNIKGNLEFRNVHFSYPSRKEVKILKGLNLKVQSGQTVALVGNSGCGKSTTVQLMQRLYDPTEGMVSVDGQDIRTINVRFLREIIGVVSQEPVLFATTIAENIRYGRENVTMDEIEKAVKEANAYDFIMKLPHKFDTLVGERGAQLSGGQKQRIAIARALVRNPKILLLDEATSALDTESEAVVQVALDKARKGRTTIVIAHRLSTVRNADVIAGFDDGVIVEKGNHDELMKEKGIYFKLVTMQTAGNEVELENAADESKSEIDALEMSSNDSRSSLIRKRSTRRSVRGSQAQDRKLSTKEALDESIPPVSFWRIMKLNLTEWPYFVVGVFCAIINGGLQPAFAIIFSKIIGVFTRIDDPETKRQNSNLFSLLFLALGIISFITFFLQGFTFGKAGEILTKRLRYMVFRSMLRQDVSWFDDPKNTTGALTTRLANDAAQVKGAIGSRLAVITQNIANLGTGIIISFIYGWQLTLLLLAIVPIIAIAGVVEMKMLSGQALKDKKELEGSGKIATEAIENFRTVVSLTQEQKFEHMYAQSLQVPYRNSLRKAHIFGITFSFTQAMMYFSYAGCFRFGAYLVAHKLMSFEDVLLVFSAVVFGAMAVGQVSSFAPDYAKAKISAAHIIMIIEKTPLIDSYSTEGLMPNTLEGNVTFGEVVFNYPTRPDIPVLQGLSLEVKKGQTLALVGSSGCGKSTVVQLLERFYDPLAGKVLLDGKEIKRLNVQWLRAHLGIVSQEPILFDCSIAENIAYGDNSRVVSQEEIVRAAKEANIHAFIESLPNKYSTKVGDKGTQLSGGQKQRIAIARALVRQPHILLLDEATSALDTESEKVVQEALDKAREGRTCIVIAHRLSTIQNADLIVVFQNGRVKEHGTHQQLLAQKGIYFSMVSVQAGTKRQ
The substrate properties of a substance for P-gp (ABCB1) were determined by means of a flux assay using LLC-PK1 cells which overexpress P-gp (L-MDR1 cells) [A. H. Schinkel et al., J. Clin. Invest. 96. 1698-1705 (1995)]. For this purpose. the LLC-PK1 cells or L-MDR1 cells were cultured on 96-well filter plates for 3-4 days. For determination of the permeation, the respective test substance, alone or in the presence of an inhibitor (such as ivermectin or verapamil, for example), was applied in a HEPES buffer to the cells either apically (A) or basally (B) and incubated for 2 hours. After ([…] and after 2 hours, samples were taken from the cis and trans compartments. The samples were separated by HPLC using reverse phase columns. The HPLC system was coupled via a Turbo Ion Spray Interface to a Triple Quadropol mass spectrometer API 3000 (Applied Biosystems Applera, Darmstadt, Germany). The permeability was evaluated on the basis of a Papp value, which was calculated using the formula published by Schwab et al. [D. Schwab et al. . . . J. Med. Chem. 46, 1716-1725 (2003)]. A substance was classified as P-gp substrate when the efflux ratio of Papp (B-A) to Papp (A-B) was >2.

Data set [3] can be described thus: Stability in human plasma. In kind it is in vitro ADME. As to conditions: 37° C. As for the experimental part: 1 mg of the test compound was solved in 0.5 ml acetonitrile/dimethylsulfoxide 1:1. For complete dissolution the HPLC vial was shaken and sonicated. While vortexing 20 μl of this solution were added to 1 ml 37° C. warm plasma. After 0.17, 0.5, 1, 1.5, 2 and 4 hours the enzymatic reaction was stopped by adding 100 μl of the compound plasma solution to a vial containing 300 μl acetonitrile/buffer pH3 (80:20) at RT. The mixture was centrifuged at 5000 rpm for 10 minutes. The supernatant was analyzed by HPLC to determine the amount of the test compound and up to two byproducts. t(0) values result from a processed sample immediately taken after vortexing with plasma at RT. The peak areas (in percentage) were used for quantification.

A further data set deals with P-gp. Kind of data set: Cytotoxicity in vitro against NCI-H1975 transfected with P-gp. In kind it is cell-based. Particulars: human.
Source text: as §1

The next data set relates to BCRP. Put plainly: Cytotoxicity in vitro against NCI-H1975 transfected with BCRP. In kind it is cell-based. Particulars: human.
Source text: as §1

In the next data set the target is T1, αvβ3 receptor (Homo sapiens, UniProt P05106+P06756).
T1 construct: αvβ3 from human A375 cells was purified analogously to a procedure described by Wong et al; endogenous in cells; host or cells: human A375 cells (receptor purified from the cells)
T1 sequence (P06756 31-889 limits assumed): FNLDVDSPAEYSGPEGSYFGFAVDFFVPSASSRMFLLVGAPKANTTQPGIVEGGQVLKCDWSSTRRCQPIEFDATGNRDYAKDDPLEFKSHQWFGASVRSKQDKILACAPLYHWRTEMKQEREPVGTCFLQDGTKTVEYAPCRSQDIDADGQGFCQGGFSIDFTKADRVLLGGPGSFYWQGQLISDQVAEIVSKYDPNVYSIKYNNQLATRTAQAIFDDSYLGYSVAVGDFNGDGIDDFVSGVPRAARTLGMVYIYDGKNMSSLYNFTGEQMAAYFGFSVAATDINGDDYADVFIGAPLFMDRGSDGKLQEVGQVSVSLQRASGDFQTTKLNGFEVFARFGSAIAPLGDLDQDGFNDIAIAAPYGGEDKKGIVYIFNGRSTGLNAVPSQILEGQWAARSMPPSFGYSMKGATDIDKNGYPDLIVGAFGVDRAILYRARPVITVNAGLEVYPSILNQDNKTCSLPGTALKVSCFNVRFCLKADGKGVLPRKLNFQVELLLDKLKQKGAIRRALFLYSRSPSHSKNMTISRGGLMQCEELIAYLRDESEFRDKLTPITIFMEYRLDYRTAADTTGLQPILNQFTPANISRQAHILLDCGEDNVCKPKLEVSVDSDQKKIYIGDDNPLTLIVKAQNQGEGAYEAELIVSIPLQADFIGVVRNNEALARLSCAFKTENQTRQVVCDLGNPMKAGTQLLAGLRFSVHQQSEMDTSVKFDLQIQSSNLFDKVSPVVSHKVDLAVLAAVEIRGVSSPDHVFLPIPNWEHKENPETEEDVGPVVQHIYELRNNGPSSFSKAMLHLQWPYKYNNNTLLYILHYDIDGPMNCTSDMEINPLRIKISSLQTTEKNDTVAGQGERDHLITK
T1 sequence (P06756 891-1048 partner limits assumed): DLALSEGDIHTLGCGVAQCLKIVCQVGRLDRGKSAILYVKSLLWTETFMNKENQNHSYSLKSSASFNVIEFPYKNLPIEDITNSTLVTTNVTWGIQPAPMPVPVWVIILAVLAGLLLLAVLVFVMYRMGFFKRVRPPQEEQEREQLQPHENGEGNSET
T1 sequence (P05106 27-788): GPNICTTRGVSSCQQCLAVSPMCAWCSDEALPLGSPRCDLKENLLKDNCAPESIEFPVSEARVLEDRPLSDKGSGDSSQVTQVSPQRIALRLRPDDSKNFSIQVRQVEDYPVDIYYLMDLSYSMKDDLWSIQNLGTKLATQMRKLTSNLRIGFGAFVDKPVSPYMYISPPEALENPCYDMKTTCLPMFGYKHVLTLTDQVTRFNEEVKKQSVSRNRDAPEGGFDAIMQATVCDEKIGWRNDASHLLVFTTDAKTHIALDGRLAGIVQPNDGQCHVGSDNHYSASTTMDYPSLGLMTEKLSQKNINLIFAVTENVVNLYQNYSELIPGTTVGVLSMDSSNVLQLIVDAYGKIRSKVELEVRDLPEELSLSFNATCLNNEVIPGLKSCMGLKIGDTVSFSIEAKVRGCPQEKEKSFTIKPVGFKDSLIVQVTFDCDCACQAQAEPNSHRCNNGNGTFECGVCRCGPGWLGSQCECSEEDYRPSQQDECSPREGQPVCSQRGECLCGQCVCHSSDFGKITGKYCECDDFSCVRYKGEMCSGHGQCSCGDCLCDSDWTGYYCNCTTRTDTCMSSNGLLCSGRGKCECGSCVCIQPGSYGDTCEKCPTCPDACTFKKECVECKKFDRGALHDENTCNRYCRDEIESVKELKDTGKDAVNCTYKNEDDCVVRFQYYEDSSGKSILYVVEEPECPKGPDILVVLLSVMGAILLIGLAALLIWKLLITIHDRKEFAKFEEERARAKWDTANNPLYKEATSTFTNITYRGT
Kind of data set: αvβ3 binding test (echistatin SPA). As for the experimental part: αvβ3 from human A375 cells was purified analogously to a procedure described by Wong et al. in Molecular Pharmacology 50, 529-537 (1996). In each case, 10 μL of αvβ3 (5 ng) in TBS PH 7.6, 2 mM CaCl2. 1 mM MgCl2. 1% n-octylglucopyranoside (Sigma): 10 μL of test substance in TBS pH 7.6. 0.1% DMSO and 45 μL of TBS pH 7.6. 2 mM CaCl2, 1 mM MgCl2, 1 mM MnCl2 were incubated at room temperature for 1 h. In each case, 25 μL of WGA SPA beads (Amersham, 4 mg/ml) and 10 μL of echistatin (0.1 μCi, Amersham, chloramine-T labelled) were then added. After 16 h at room temperature, the samples were measured in a scintillation measuring apparatus (Wallac 1450).

Another data set concerns 786-O cell line. Kind of data set: Cytotoxicity in vitro (MTT) in the presence and absence of elastase, 786-O. Format: cell-based. As to conditions: 72 h, MTT. As for the experimental part: (§4) Cultivation of cells was performed according to standard procedures with the media recommended by the provider. The cells in a total volume of 100 μL were seeded in a 96-well plate with white bottom (#3610). After a 24 h incubation period at 37° C. and 5% CO2, the medium was changed by adding 90 μL fresh medium. The treatment starts by adding the test compound to the cells in 10 μl of culture medium. Concentrations from 10^−5 M to 10^−13 M in triplicates were chosen followed by an incubation at 37° C. and 5% carbon dioxide. One set of samples were only treated with the test compound whereas to an otherwise identically treated second set of samples also 10 nM elastase was pipetted. After 72 h. the proliferation is detected using the MTT assay (ATCC). At the end of the incubation period the MTT reagent is added to all samples for 4 h, followed by lysis of the cells overnight by addition of the detergent. The dye formed was detected at 570 nm. The proliferation of cells which were not treated with test substance but were otherwise identically treated was defined as the 100% value. (FIG. 1 and table 4).

The next data set has as its system HT29 cell line. Put plainly: Cytotoxicity in vitro (MTT) in the presence and absence of elastase, HT29. As to conditions: 72 h. In kind it is cell-based. How it is done: as §4
Another data set has as its system Caco-2 cells. Put plainly: Caco-2 flux assay for cellular permeability. Format: in vitro ADME. As for the experimental part: as §3
In the next data set the test system is NCI-H1975-P-gp. Kind of data set: Cytotoxicity in vitro against NCI-H1975 transfected with P-gp. Format: cell-based.
Source text: as §1

For a further data set, the system named is NCI-H1975-BCRP. Kind of data set: Cytotoxicity in vitro against NCI-H1975 transfected with BCRP. Format: cell-based.
Source text: as §1

The mark [4] stands for this setting: Caco-2, Papp (B-A) to Papp (A-B).

The term Papp A→B denotes the apparent permeability from the apical to the basolateral side of a cell layer. Read a low Papp A→B as slow passage. One may read the efflux ratio as the permeability from basolateral to apical divided by that in the opposite direction, in the common usage. As for `CCc1c2c(nc3ccccc13)-c1cc3c(c(=O)n1C2)COC(=O)[C@]3(O)CC` [7-Ethyl-camptothecin, (4S)-4,11-diethyl-4-hydroxy-1H-pyrano[3′,4′:6,7]indolizino[1,2-b]quinoline-3,14(4 H,12H)-dione], the IC50 stood at 19 nM in the data set with NCI-H1975 (Homo sapiens, NCI-H1975); 34 nM with P-gp; 27 nM with BCRP. For the same compound, the Kp in data set [1] (mouse, tumor and plasma, 1 mg/kg, iv, female 786-O tumor bearing NMRI nu/nu mice, read-out: Tumor/Plasma ratio of 7-ethyl camptothecin) amounted to 0.6. For the same compound, in data set [1], the “Tumor/Plasma enrichment factor (ratio/ratio)” value worked out at 1. The Papp A→B at 2 h worked out at 17.1 ×10⁻⁶ cm/s in [2] (Caco-2, 2 hours incubation) and 19.6 ×10⁻⁶ cm/s at P-gp (ABCB1) (pig, LLC-PK1). Besides, the efflux ratio at 2 h in [2] (setting [4]) worked out at 1; at P-gp (ABCB1) (pig, LLC-PK1) it was 0.6. For the same compound, in [3], the “stable in human plasma for” value is given as “at least 4 hours”.
Regarding `CCCNC(=O)Nc1cccc(S(=O)(=O)Nc2cccc([C@H](CC(=O)[O-])NC(=O)Nc3ccc(NC(=O)NCCOCCOCCOCCC(=O)N[C@@H](CC(=O)[O-])C(=O)N4CCC[C@H]4C(=O)N[C@H](C(=O)O[C@]4(CC)C(=O)OCc5c4cc4n(c5=O)Cc5c-4nc4ccccc4c5CC)C(C)C)cc3)c2)c1.[Na+].[Na+]` [Example 2, disodium (4S)-4,11-diethyl-3,14-dioxo-3,4,12,14-tetrahydro-1H-pyrano[3′,4′: 6,7]indolizino [1,2-b]quinolin-4-yl 1-{(2S)-2-(carboxylatomethyl)-17-[4-({[(1S)-2-carboxylato-1-{3-[({3-[(propyl-carbamoyl)amino]phenyl}sulfonyl)amino]phenyl}ethyl]carbamoyl}amino)anilino]-4,17-dioxo-7,10,13-trioxa-3,16-diazaheptadecan-1-oyl}-L-prolyl-L-valinate], in data set [1], the “Tumor/Plasma enrichment factor (ratio/ratio)” value is on record as 2. In addition, the IC50 on αvβ3 receptor was 700 nM; in the data set on 786-O cell line (10 nM elastase, read-out: 786-O cell line IC50 w elastase), 0.17 nM; with 786-O cell line (without elastase, read-out: 786-O cell line IC50 w/o elastase), 268 nM; in the data set on HT29 cell line (10 nM elastase, read-out: HT29 cell line IC50 w elastase), 32 nM; with HT29 cell line (without elastase, read-out: HT29 cell line IC50 w/o elastase), above 500 nM.
Regarding `CCc1c2c(nc3ccc(O)cc13)-c1cc3c(c(=O)n1C2)COC(=O)[C@]3(O)CC` [SN38], the IC50 in the data set on NCI-H1975 amounted to 45 nM; in the data set with NCI-H1975-P-gp, 141 nM; in the data set with NCI-H1975-BCRP, 512 nM. Moreover, the “permeability Papp A->B” value in the data set on Caco-2 cells (Caco-2, 2 hours incubation) was determined as 0.8 ×10⁻⁶ cm/s; with Caco-2 cells (Caco-2, new data for SN38) it was 2 ×10⁻⁶ cm/s; at P-gp (ABCB1) (L-MDR1 cells (LLC-PK1 overexpressing P-gp)), 1 ×10⁻⁶ cm/s. Besides, the efflux ratio in the data set with Caco-2 cells (setting [4]) was found to be 36; in the data set on Caco-2 cells (Caco-2, new data for SN38), 9; at P-gp (ABCB1) (L-MDR1 cells, Papp (B-A) to Papp (A-B)), 16.
As to `CC[C@@]1(O)C(=O)OCc2c1cc1n(c2=O)Cc2cc3ccccc3nc2-1` [camptothecin], the “extent of degradation in human plasma” value in [3] (4 hours) is “about 50%”.
